Reference: US20230233555A1 (AbbVie Inc., priority 2022, published 2023)

Experiments:
[1] = test system: CYP1A2, CYP3A, CYP2D6, CYP2C9, CYP2C19, CYP2B6; assay: Drug interaction studies: effect of upadacitinib on co-administered drugs / in vivo markers of CYP activity (cocktail study); settings: for AUC Ratio (90% CI) of co-administered drug, with upadacitinib vs alone / Cmax Ratio (90% CI) of co-administered drug, with upadacitinib vs alone: extended-release
[2] = test system: patients with moderately to severely active rheumatoid arthritis, naive to MTX; assay: Trial RA-I (NCT02706873); assay type: in vivo, human; settings: for CRP / Number of swollen joints (0-66) / Number of tender joints (0-68) / Pain / Patient global assessment / Physician global assessment: mean; for Pain / Patient global assessment / Physician global assessment: visual analog scale 0 = best, 100 = worst
Method: The primary endpoint was the proportion of patients who achieved an ACR50 response at Week 12. Key secondary endpoints included disease activity score (DAS28-CRP) ≤3.2 at Week 12, DAS28-CRP <2.6 at Week 24, change from baseline in HAQ-DI at Week 12, and change from baseline in van der Heijde-modified total Sharp Score (mTSS) at Week 24.
Inhibition of progression of structural joint damage was assessed using the modified Total Sharp Score (mTSS) and its components, the erosion score and joint space narrowing score, at Week 26 in Trial RA-IV and Week 24 in Trial RA-I. The proportion of patients with no radiographic progression (mTSS change from baseline […]) was also assessed.

[3] = test system: patients with moderately to severely active rheumatoid arthritis, inadequate response to MTX; assay: Trial RA-II (NCT02706951); assay type: in vivo, human; settings: for CRP / Number of swollen joints (0-66) / Number of tender joints (0-68) / Pain / Patient global assessment / Physician global assessment: Trial RA-II, MTX-IR, monotherapy, mean; for Pain / Patient global assessment / Physician global assessment: visual analog scale 0 = best, 100 = worst; for CRP, mean / Number of swollen joints (0-66), mean / Number of tender joints (0-68), mean / Pain (visual analog scale 0-100), mean / Patient global assessment (visual analog scale 0-100), mean / Physician global assessment (visual analog scale 0-100), mean: RA-II
From the text: The primary endpoint was the proportion of patients who achieved an ACR20 response at Week 14. Key secondary endpoints included DAS28-CRP ≤3.2, DAS28-CRP <2.6, and change from baseline in HAQ-DI at Week 14.

[4] = test system: patients with rheumatoid arthritis; assay: Rheumatoid arthritis Phase 3 trials, integrated datasets (RA-I to RA-V)
From the text: Exposure adjusted incidence rates were adjusted by trial for all the adverse events reported in this section.
Patients 18 years of age and older were eligible to participate. The presence of at least 6 tender and 6 swollen joints and evidence of systemic inflammation based on elevation of hsCRP was required at baseline.

[5] = Baseline, Trial RA-I, MTX-naïve, monotherapy, RINVOQ 15 mg or MTX
[6] = RA-I MTX-naive monotherapy, Week 12, RINVOQ 15 mg or MTX
[7] = RA-I MTX-naive monotherapy, Week 24, RINVOQ 15 mg or MTX
[8] = RA-I, Baseline, RINVOQ 15 mg or MTX
[9] = RA-I, Week 12, RINVOQ 15 mg or MTX
[10] = Week 12 (primary efficacy timepoint), Trial RA-I, MTX-naïve, monotherapy, RINVOQ 15 mg or MTX
[11] = RA-II MTX-IR monotherapy, Week 14, RINVOQ 15 mg or MTX
[12] = Week 14 (primary efficacy timepoint), RINVOQ 15 mg or MTX
[13] = MTX-controlled RA-I and RA-II, 12/14 weeks, 15 mg monotherapy (or MTX monotherapy arm)
[14] = MTX-controlled trials, up to 12/14 weeks, 15 mg (or MTX arm)

Compound: COc1ccc2c(c1)[C@]13CCCC[C@@H]1[C@H](C2)N(C)CC3 [Dextromethorphan]
- AUC Ratio (90% CI) of co-administered drug, with upadacitinib vs alone ([1]; upadacitinib 30 mg QD): 1.07 (0.95-1.22)
- Cmax Ratio (90% CI) of co-administered drug, with upadacitinib vs alone ([1]; upadacitinib 30 mg QD): 1.09 (0.98-1.21)
- AUC Ratio (90% CI) of co-administered drug, with upadacitinib vs alone ([1]; upadacitinib 45 mg QD): 1.35 (1.18-1.54)
- Cmax Ratio (90% CI) of co-administered drug, with upadacitinib vs alone ([1]; upadacitinib 45 mg QD): 1.30 (1.13-1.50)

Compound: CN(Cc1cnc2nc(N)nc(N)c2n1)c1ccc(C(=O)N[C@@H](CCC(=O)O)C(=O)O)cc1 [MTX, methotrexate]
- mTSS, Mean (SD) [2, 5]: 13.3 (31)
- CRP [2, 5]: 21.2 mg/L
- Number of swollen joints (0-66) [2, 5]: 17
- Number of tender joints (0-68) [2, 5]: 26
- Pain [2, 5]: 66
- Patient global assessment [2, 5]: 66
- Physician global assessment [2, 5]: 69
- ACR20 response, patients [2, 6]: 54%
- ACR50 response, patients [2, 6]: 28%
- ACR70 response, patients [2, 6]: 14%
- DAS28-CRP <2.6, patients (proportion of responders) [2, 6]: 14%
- ACR20 response, patients [2, 7]: 59%
- ACR50 response, patients [2, 7]: 33%
- ACR70 response, patients [2, 7]: 18%
- DAS28-CRP <2.6, patients [2, 7]: 18%
- mTSS, Mean (SD) ([2]; RA-I monotherapy, Baseline, RINVOQ 15 mg or MTX): 13.3 (31)
- mTSS, mean change from baseline (SD) ([2]; RA-I monotherapy, Week 24, RINVOQ 15 mg or MTX): 0.67 (2.8)
- Venous thrombosis, number of patients ([2]; RA-I through Week 24, 15 mg (or MTX arm)): 1 patients
- CRP, mean [2, 8]: 21.2 mg/L
- Number of swollen joints (0-66), mean [2, 8]: 17
- Number of tender joints (0-68), mean [2, 8]: 26
- Pain (visual analog scale 0-100), mean [2, 8]: 66
- Patient global assessment (visual analog scale 0-100), mean [2, 8]: 66
- Physician global assessment (visual analog scale 0-100), mean [2, 8]: 69
- CRP, mean [2, 9]: 10.9 mg/L
- Number of swollen joints (0-66), mean [2, 9]: 6
- Number of tender joints (0-68), mean [2, 9]: 13
- Of DAS28-CRP <2.6 responders, proportion with 0 active joints [2, 9]: 51%
- Of DAS28-CRP <2.6 responders, proportion with 1 active joint [2, 9]: 35%
- Of DAS28-CRP <2.6 responders, proportion with 2 active joints [2, 9]: 9%
- Of DAS28-CRP <2.6 responders, proportion with 3 or more active joints [2, 9]: 5%
- Pain (visual analog scale 0-100), mean [2, 9]: 41
- Patient global assessment (visual analog scale 0-100), mean [2, 9]: 42
- Physician global assessment (visual analog scale 0-100), mean [2, 9]: 32
- Patients with no radiographic progression ([2]; RA-I, Week 24, RINVOQ 15 mg monotherapy or MTX monotherapy): 78%
- CRP [2, 10]: 10.9 mg/L
- Number of swollen joints (0-66) [2, 10]: 6
- Number of tender joints (0-68) [2, 10]: 13
- Pain [2, 10]: 41
- Patient global assessment [2, 10]: 42
- Physician global assessment [2, 10]: 32
- mTSS, mean change from baseline (SD) ([2]; Week 24, Trial RA-I, MTX-naïve, monotherapy, RINVOQ 15 mg or MTX): 0.67 (2.8)
- CRP ([3]; Baseline, RINVOQ 15 mg or MTX): 14.5 mg/L
- Number of swollen joints (0-66) ([3]; Baseline, RINVOQ 15 mg or MTX): 17
- Number of tender joints (0-68) ([3]; Baseline, RINVOQ 15 mg or MTX): 25
- Pain ([3]; Baseline, RINVOQ 15 mg or MTX): 63
- Patient global assessment ([3]; Baseline, RINVOQ 15 mg or MTX): 60
- Physician global assessment ([3]; Baseline, RINVOQ 15 mg or MTX): 62
- ACR20 response, patients [3, 11]: 41%
- ACR50 response, patients [3, 11]: 15%
- ACR70 response, patients [3, 11]: 3%
- DAS28-CRP <2.6, patients [3, 11]: 8%
- Venous thrombosis, number of patients ([3]; RA-II through Week 14, 15 mg monotherapy (or MTX monotherapy arm)): 0 patients
- CRP, mean ([3]; Baseline, RINVOQ 15 mg or MTX): 14.5 mg/L
- Number of swollen joints (0-66), mean ([3]; Baseline, RINVOQ 15 mg or MTX): 17
- Number of tender joints (0-68), mean ([3]; Baseline, RINVOQ 15 mg or MTX): 25
- Pain (visual analog scale 0-100), mean ([3]; Baseline, RINVOQ 15 mg or MTX): 63
- Patient global assessment (visual analog scale 0-100), mean ([3]; Baseline, RINVOQ 15 mg or MTX): 60
- Physician global assessment (visual analog scale 0-100), mean ([3]; Baseline, RINVOQ 15 mg or MTX): 62
- CRP, mean ([3]; Week 14, RINVOQ 15 mg or MTX): 12.8 mg/L
- Number of swollen joints (0-66), mean ([3]; Week 14, RINVOQ 15 mg or MTX): 9
- Number of tender joints (0-68), mean ([3]; Week 14, RINVOQ 15 mg or MTX): 15
- Pain (visual analog scale 0-100), mean ([3]; Week 14, RINVOQ 15 mg or MTX): 49
- Patient global assessment (visual analog scale 0-100), mean ([3]; Week 14, RINVOQ 15 mg or MTX): 48
- Physician global assessment (visual analog scale 0-100), mean ([3]; Week 14, RINVOQ 15 mg or MTX): 37
- CRP [3, 12]: 12.8 mg/L
- Number of swollen joints (0-66) [3, 12]: 9
- Number of tender joints (0-68) [3, 12]: 15
- Pain [3, 12]: 49
- Patient global assessment [3, 12]: 48
- Physician global assessment [3, 12]: 37
- Infections, number of patients [4, 13]: 127 patients
- Infections, rate [4, 13]: 119.5 per 100 patient-years
- Malignancies excluding NMSC, number of patients [4, 13]: 1 patients
- Malignancies excluding NMSC, rate [4, 13]: 0.8 per 100 patient-years
- Opportunistic infections (excluding tuberculosis), number of patients [4, 13]: 1 patients
- Serious infections, number of patients [4, 13]: 2 patients
- Serious infections, rate [4, 13]: 1.6 per 100 patient-years
- Opportunistic infections (excluding tuberculosis), rate ([4]; MTX-controlled RA-I and RA-II, 12/14 weeks, MTX monotherapy arm): 0.8 per 100 patient-years
- ALT elevations ≥3×ULN in at least one measurement, patients [4, 14]: 1.9%
- AST elevations ≥3×ULN in at least one measurement, patients [4, 14]: 0.9%
- Active tuberculosis cases ([4]; RA MTX-controlled period, 15 mg monotherapy (or MTX monotherapy arm)): no active cases
- Gastrointestinal perforations ([4]; RA MTX-controlled trials, 12/14 weeks, 15 mg (or MTX arm)): no cases

Compound: Cc1ncc2n1-c1ccc(Cl)cc1C(c1ccccc1F)=NC2 [Midazolam]
- Decrease in exposure of oral midazolam (sensitive CYP3A4 substrate) ([1]; repeated doses of upadacitinib 30 mg): 26%
- AUC Ratio (90% CI) of co-administered drug, with upadacitinib vs alone ([1]; upadacitinib 30 mg QD): 0.74 (0.68-0.80)
- Cmax Ratio (90% CI) of co-administered drug, with upadacitinib vs alone ([1]; upadacitinib 30 mg QD): 0.74 (0.68-0.80)
- AUC Ratio (90% CI) of co-administered drug, with upadacitinib vs alone ([1]; upadacitinib 45 mg QD): 0.76 (0.69-0.83)
- Cmax Ratio (90% CI) of co-administered drug, with upadacitinib vs alone ([1]; upadacitinib 45 mg QD): 0.75 (0.69-0.83)
